Columns and labels:
[1] = target: T1, hSGLT3 (Homo sapiens, UniProt Q9NY91); experiment: sugar-induced current, two-electrode voltage clamp in Xenopus oocytes; assay type: cell-based; conditions: 150 mM αM-glc, Na+ buffer; bound but not transported
T1 construct: gene SLC5A4; full-length cDNA, cRNA expressed in Xenopus laevis oocytes (untagged in the oocyte tests)
T1 sequence (Q9NY91 1-659): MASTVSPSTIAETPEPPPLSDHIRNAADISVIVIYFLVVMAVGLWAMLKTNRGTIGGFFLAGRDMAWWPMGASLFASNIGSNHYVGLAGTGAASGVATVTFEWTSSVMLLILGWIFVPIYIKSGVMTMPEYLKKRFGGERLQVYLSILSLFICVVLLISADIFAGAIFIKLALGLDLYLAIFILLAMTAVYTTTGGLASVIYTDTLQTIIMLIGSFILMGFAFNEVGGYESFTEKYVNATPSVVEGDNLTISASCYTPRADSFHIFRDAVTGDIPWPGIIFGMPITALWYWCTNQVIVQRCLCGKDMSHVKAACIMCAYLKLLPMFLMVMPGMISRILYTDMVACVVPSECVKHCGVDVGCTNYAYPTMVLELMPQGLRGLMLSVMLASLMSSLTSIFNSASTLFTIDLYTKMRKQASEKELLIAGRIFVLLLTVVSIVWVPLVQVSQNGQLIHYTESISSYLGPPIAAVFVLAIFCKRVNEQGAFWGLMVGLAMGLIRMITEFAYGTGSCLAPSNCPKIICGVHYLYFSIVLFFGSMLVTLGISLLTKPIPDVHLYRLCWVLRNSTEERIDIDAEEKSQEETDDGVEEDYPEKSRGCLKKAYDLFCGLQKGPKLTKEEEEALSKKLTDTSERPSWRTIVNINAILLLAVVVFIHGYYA

[2] = target: T2, hSGLT3 (Homo sapiens, UniProt Q9NY91, E457Q); experiment: inhibition of αM-glc-induced depolarization, two-electrode recording in Xenopus oocytes; assay type: cell-based; conditions: read-out: E457Q-hSGLT3 / K0.5
T2 construct: gene SLC5A4; full-length cDNA, cRNA expressed in Xenopus laevis oocytes (untagged in the oocyte tests)
T2 sequence (Q9NY91 1-659 E457Q): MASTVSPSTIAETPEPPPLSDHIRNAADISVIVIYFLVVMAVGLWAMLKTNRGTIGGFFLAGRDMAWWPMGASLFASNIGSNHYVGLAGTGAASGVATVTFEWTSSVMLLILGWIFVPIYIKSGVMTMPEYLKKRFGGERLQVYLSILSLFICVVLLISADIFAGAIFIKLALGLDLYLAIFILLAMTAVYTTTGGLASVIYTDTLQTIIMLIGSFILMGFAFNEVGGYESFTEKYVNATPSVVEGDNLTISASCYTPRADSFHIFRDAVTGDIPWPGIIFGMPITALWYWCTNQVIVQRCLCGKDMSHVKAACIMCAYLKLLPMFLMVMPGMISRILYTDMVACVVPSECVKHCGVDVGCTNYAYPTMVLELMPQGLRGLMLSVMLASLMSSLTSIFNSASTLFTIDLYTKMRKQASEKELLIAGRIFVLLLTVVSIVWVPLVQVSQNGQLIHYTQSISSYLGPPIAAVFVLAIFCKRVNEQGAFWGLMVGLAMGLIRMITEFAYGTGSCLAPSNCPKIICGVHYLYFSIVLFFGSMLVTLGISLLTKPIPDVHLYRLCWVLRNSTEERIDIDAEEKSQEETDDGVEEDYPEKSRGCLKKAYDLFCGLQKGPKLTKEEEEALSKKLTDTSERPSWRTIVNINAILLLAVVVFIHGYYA
From the text: inhibition of αM-glc-induced depolarization, two-electrode recording in Xenopus oocytes on hSGLT3

[3] = target: T1, hSGLT3; experiment: inhibition of glucose-induced current, two-electrode voltage clamp in Xenopus oocytes; assay type: cell-based; conditions: pH 5, glucose present; phlorizin also blocks about two-thirds of the H+-induced current
[4] = substrate: CO[C@H]1O[C@H](CO)[C@@H](O)[C@H](O)[C@H]1O; experiment: sugar-induced depolarization, two-electrode recording in Xenopus oocytes; assay type: cell-based, Homo sapiens; conditions: 100 mM Na+, pH 7.4, room temperature, n = 3
From the text: sugar-induced depolarization, two-electrode recording in Xenopus oocytes on hSGLT3

## CO[C@H]1O[C@H](CO)[C@@H](O)[C@H](O)[C@H]1O [αM-glc]
[1]
  sugar-induced current, two-electrode voltage clamp in Xenopus oocytes: sugar-induced current (difference between black and open circles in 3D and 3G)

## O=C(CCc1ccc(O)cc1)c1c(O)cc(O)cc1O[C@@H]1O[C@H](CO)[C@@H](O)[C@H](O)[C@H]1O [phlorizin]
[2]
  Ki: 1600 ± 90 nM
[3]
  % inhibition at 100 μM: 2/3

B1: hSGLT3 (Homo sapiens; E457Q) (protein)
chain: MASTVSPSTIAETPEPPPLSDHIRNAADISVIVIYFLVVMAVGLWAMLKTNRGTIGGFFLAGRDMAWWPMGASLFASNIGSNHYVGLAGTGAASGVATVTFEWTSSVMLLILGWIFVPIYIKSGVMTMPEYLKKRFGGERLQVYLSILSLFICVVLLISADIFAGAIFIKLALGLDLYLAIFILLAMTAVYTTTGGLASVIYTDTLQTIIMLIGSFILMGFAFNEVGGYESFTEKYVNATPSVVEGDNLTISASCYTPRADSFHIFRDAVTGDIPWPGIIFGMPITALWYWCTNQVIVQRCLCGKDMSHVKAACIMCAYLKLLPMFLMVMPGMISRILYTDMVACVVPSECVKHCGVDVGCTNYAYPTMVLELMPQGLRGLMLSVMLASLMSSLTSIFNSASTLFTIDLYTKMRKQASEKELLIAGRIFVLLLTVVSIVWVPLVQVSQNGQLIHYTQSISSYLGPPIAAVFVLAIFCKRVNEQGAFWGLMVGLAMGLIRMITEFAYGTGSCLAPSNCPKIICGVHYLYFSIVLFFGSMLVTLGISLLTKPIPDVHLYRLCWVLRNSTEERIDIDAEEKSQEETDDGVEEDYPEKSRGCLKKAYDLFCGLQKGPKLTKEEEEALSKKLTDTSERPSWRTIVNINAILLLAVVVFIHGYYA
notes: full-length cDNA, cRNA expressed in Xenopus laevis oocytes (untagged in the oocyte tests)
[4]
  K0.5: 0.5 ± 0.03 mM
